Measured values: the NIST ThermoML archive (doi:10.1007/s10765-018-2361-8)

Settings: for mass density / kinematic viscosity: 101.33 kPa; for mass density / kinematic viscosity / vapor or sublimation pressure: Liquid; for mass density: Pycnometric method; for surface tension liquid-gas: Capillary rise; for kinematic viscosity: Capillary tube (Ostwald / Ubbelohde) method; for vapor or sublimation pressure: Closed cell (Static) method

CC(C)O [propan-2-ol]
Settings | kinematic viscosity [m2/s] | mass density [kg/m3] | surface tension liquid-gas [mN/m] | vapor or sublimation pressure [kPa]
263.1 K | – | 810.9 | – | –
283.1 K | – | 795.3 | – | –
293.2 K | 3.12e-06 | – | 21.4 | –
295.3 K | – | 784.3 | – | –
297.9 K | – | – | – | 6.38
303.2 K | 2.35e-06 | – | – | –
303.3 K | – | – | 20.6 | –
303.6 K | – | 777.5 | – | –
303.7 K | – | – | – | 8.93
313.2 K | – | – | 19.8 | –
321.2 K | – | – | – | 21.91
323.2 K | 1.39e-06 | – | – | –
323.3 K | – | – | 19 | –
323.4 K | – | 760.1 | – | –
333.2 K | – | – | 18.2 | –
333.5 K | – | – | – | 39.46
343.3 K | 9e-07 | 741 | 17.4 | 61.57
352.9 K | – | – | – | 92.28
362.5 K | – | – | – | 134.96
